Laboratory results from patent US20230085307A1, “PYRIDAZINONE COMPOUND AND HERBICIDE” (NISSAN CHEMICAL CORPORATION, priority 2019, published 2023).

Experiments:
[1] = test system: late watergrass; experiment: Test Example 2: herbicidal activity, application during weed generation under submerged conditions (Table 17, symbol A); format: in vivo, late watergrass (Echinochloa oryzicola); details: AAH 320 g/ha; application during weed generation, submerged conditions
Method in brief: (§1)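 Steps: fill Wagner pots with alluvial soil; add water to give 4 cm depth; sow the species mixed; grow under glass at 25–30° C.; at 1–2 leaves apply water-diluted emulsion formulation to the water surface at a fixed herbicide amount; score after 3 weeks.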

[2] = test system: barnyard grass; experiment: Test Example 5: herbicidal effect by foliage application, plastic box (Table 20, symbol H); format: in vivo, barnyard grass (Echinochloa crus-galli); details: foliage application, 320 g/ha, three weeks after application
Method in brief: (§2)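 Sow seeds spot-wise in sterilized diluvial soil; cover with ~1.5 cm soil. Grow 14 days in greenhouse, 25° C. to 30° C. Spray foliage with emulsion diluted to predetermined amount. Rate effect after 3 weeks.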

[3] = test system: Italian ryegrass; experiment: Test Example 5: herbicidal effect by foliage application, plastic box (Table 20, symbol K); format: in vivo, Italian ryegrass (Lolium multiflorum); details: foliage application, 320 g/ha, three weeks after application
Method in brief: as §2

[4] = test system: southern crabgrass; experiment: Test Example 4: herbicidal effect by soil treatment (Table 19, symbol F); format: in vivo, southern crabgrass (Digitaria ciliaris); details: amount of applied herbicide 320 g/ha
Method in brief: (§3)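 Applied as a water-diluted emulsion, the compound was sprayed onto soil covering newly sown seeds. Evaluation came three weeks after application, in a greenhouse held at 25° C. to 30° C.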

[5] = test system: oval-leafed pondweed; experiment: Test Example 1: herbicidal activity, application before weed generation under submerged conditions (Table 16, symbol C); format: in vivo, oval-leafed pondweed (Monochoria vaginalis); details: amount of applied herbicide 320 g/ha
Method in brief: (§4)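 Submerged Wagner pots (alluvial soil, 4 cm water) sown with weed seeds and planted with 2.5-leaf rice seedlings; emulsifiable concentrate diluted in water applied to water surface on sowing day. Held in greenhouse at 25-30 °C; injury scored 0-5 by herbicidal rate after three weeks.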

[6] = test system: blackgrass; experiment: Test Example 4: herbicidal effect by soil treatment (Table 19, symbol J); format: in vivo, blackgrass (Alopecurus myosuroides); details: amount of applied herbicide 320 g/ha
Method in brief: as §3

[7] = test system: chickweed; experiment: Test Example 5: herbicidal effect by foliage application, plastic box (Table 20, symbol P); format: in vivo, common chickweed (Stellaria media); details: foliage application, 320 g/ha, three weeks after application
Method in brief: as §2

[8] = test system: oval-leafed pondweed; experiment: Test Example 2: herbicidal activity, application during weed generation under submerged conditions (Table 17, symbol C); format: in vivo, oval-leafed pondweed (Monochoria vaginalis); details: AAH 320 g/ha; application during weed generation, submerged conditions
Method in brief: as §1

[9] = test system: false cleavers; experiment: Test Example 4: herbicidal effect by soil treatment (Table 19, symbol Q); format: in vivo, false cleavers (Galium spurium); details: amount of applied herbicide 320 g/ha
Method in brief: as §3

[10] = test system: barnyard grass; experiment: Test Example 3: herbicidal effect by foliage application, Wagner pot (Table 18, symbol H); format: in vivo, barnyard grass (Echinochloa crus-galli); details: 320 g/ha
Method in brief: (§5)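 Plants were sown in alluvial soil held under 0.1–0.5 cm standing water and grown 14 days in a greenhouse at 25–30 °C. An emulsifiable formulation, water-diluted to the set dose, was then sprayed onto the foliage, and effects were scored three weeks later using previously defined criteria.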

[11] = test system: rice flat sedge; experiment: Test Example 3: herbicidal effect by foliage application, Wagner pot (Table 18, symbol E); format: in vivo, rice flat sedge (Cyperus iria); details: 320 g/ha
Method in brief: as §5

[12] = test system: redroot pigweed; experiment: Test Example 4: herbicidal effect by soil treatment (Table 19, symbol N); format: in vivo, redroot pigweed (Amaranthus retroflexus); details: amount of applied herbicide 320 g/ha
Method in brief: as §3

[13] = test system: velvetleaf; experiment: Test Example 4: herbicidal effect by soil treatment (Table 19, symbol M); format: in vivo, velvetleaf (Abutilon theophrasti); details: amount of applied herbicide 320 g/ha
Method in brief: as §3

[14] = test system: blackgrass; experiment: Test Example 5: herbicidal effect by foliage application, plastic box (Table 20, symbol J); format: in vivo, blackgrass (Alopecurus myosuroides); details: foliage application, 320 g/ha, three weeks after application
Method in brief: as §2

[15] = test system: Japanese bulrush; experiment: Test Example 1: herbicidal activity, application before weed generation under submerged conditions (Table 16, symbol B); format: in vivo, Japanese bulrush (Schoenoplectus juncoides); details: amount of applied herbicide 320 g/ha
Method in brief: as §4

[16] = test system: southern crabgrass; experiment: Test Example 5: herbicidal effect by foliage application, plastic box (Table 20, symbol F); format: in vivo, southern crabgrass (Digitaria ciliaris); details: foliage application, 320 g/ha, three weeks after application
Method in brief: as §2

[17] = test system: persian speedwell; experiment: Test Example 4: herbicidal effect by soil treatment (Table 19, symbol R); format: in vivo, Persian speedwell (Veronica persica); details: amount of applied herbicide 320 g/ha
Method in brief: as §3

Row | SMILES | herbicidal effect rating, A: late watergrass [1] | H: barnyard grass, herbicidal effect grade [2] | K: Italian ryegrass, herbicidal effect grade [3] | F: southern crabgrass, herbicidal effect grade [4] | Herbicidal effect, C: oval-leafed pondweed [5] | J: blackgrass, herbicidal effect grade [6] | P: chickweed, herbicidal effect grade [7] | herbicidal effect rating, C: oval-leafed pondweed [8] | Q: false cleavers, herbicidal effect grade [9] | herbicidal effect on barnyard grass (H) [10] | herbicidal effect on rice flat sedge (E) [11] | N: redroot pigweed, herbicidal effect grade [12] | M: velvetleaf, herbicidal effect grade [13] | J: blackgrass, herbicidal effect grade [14] | Herbicidal effect, B: Japanese bulrush [15] | F: southern crabgrass, herbicidal effect grade [16] | R: persian speedwell, herbicidal effect grade [17]
1 | CCOc1cc(F)ccc1-c1sc2cc(C)ccc2c1-c1c(O)c(C)nn(C)c1=O [3-057] | 4 (Herbicidal rate of 70% or more and less than 90%) | 5 (Herbicidal rate of 90% or more (almost completely withered)) | 5 (Herbicidal rate of 90% or more (almost completely withered)) | 5 (Herbicidal rate of 90% or more (almost completely withered)) | 5 (Herbicidal rate of 90% or more (almost completely withered)) | 4 (Herbicidal rate of 70% or more and less than 90%) | 5 (Herbicidal rate of 90% or more (almost completely withered)) | 3 (Herbicidal rate of 40% or more and less than 70%) | 3 (Herbicidal rate of 40% or more and less than 70%) | 5 (Herbicidal rate of 90% or more (almost completely withered)) | 4 (Herbicidal rate of 70% or more and less than 90%) | 5 (Herbicidal rate of 90% or more (almost completely withered)) | 2 (Herbicidal rate of 20% or more and less than 40%) | 5 (Herbicidal rate of 90% or more (almost completely withered)) | 5 (Herbicidal rate of 90% or more (almost completely withered)) | 5 (Herbicidal rate of 90% or more (almost completely withered)) | 5 (Herbicidal rate of 90% or more (almost completely withered))
2 | CCCC(=O)Oc1c(C)nn(C)c(=O)c1-c1c(-c2ccc(F)cc2OCC)sc2cc(C)ccc12 [3-058] | 4 (Herbicidal rate of 70% or more and less than 90%) | 5 (Herbicidal rate of 90% or more (almost completely withered)) | 5 (Herbicidal rate of 90% or more (almost completely withered)) | 5 (Herbicidal rate of 90% or more (almost completely withered)) | 3 (Herbicidal rate of 40% or more and less than 70%) | 3 (Herbicidal rate of 40% or more and less than 70%) | 5 (Herbicidal rate of 90% or more (almost completely withered)) | 4 (Herbicidal rate of 70% or more and less than 90%) | 1 (Herbicidal rate of 5% or more and less than 20%) | 5 (Herbicidal rate of 90% or more (almost completely withered)) | 5 (Herbicidal rate of 90% or more (almost completely withered)) | 5 (Herbicidal rate of 90% or more (almost completely withered)) | 5 (Herbicidal rate of 90% or more (almost completely withered)) | 5 (Herbicidal rate of 90% or more (almost completely withered)) | 5 (Herbicidal rate of 90% or more (almost completely withered)) | 5 (Herbicidal rate of 90% or more (almost completely withered)) | 4 (Herbicidal rate of 70% or more and less than 90%)
3 | CCCC(=O)Oc1c(C)nn(C)c(=O)c1-c1c(-c2ccccc2)sc2cc(OC)ccc12 [3-062] | 0 (Herbicidal rate of 5% or less (almost no effect)) | 0 (Herbicidal rate of 5% or less (almost no effect)) | 2 (Herbicidal rate of 20% or more and less than 40%) | 0 (Herbicidal rate of 5% or less (almost no effect)) | 4 (Herbicidal rate of 70% or more and less than 90%) | 0 (Herbicidal rate of 5% or less (almost no effect)) | 5 (Herbicidal rate of 90% or more (almost completely withered)) | 3 (Herbicidal rate of 40% or more and less than 70%) | 2 (Herbicidal rate of 20% or more and less than 40%) | 2 (Herbicidal rate of 20% or more and less than 40%) | 5 (Herbicidal rate of 90% or more (almost completely withered)) | 0 (Herbicidal rate of 5% or less (almost no effect)) | 0 (Herbicidal rate of 5% or less (almost no effect)) | 0 (Herbicidal rate of 5% or less (almost no effect)) | 4 (Herbicidal rate of 70% or more and less than 90%) | 0 (Herbicidal rate of 5% or less (almost no effect)) | 4 (Herbicidal rate of 70% or more and less than 90%)
4 | CCCC(=O)Oc1c(C)nn(C)c(=O)c1-c1c(-c2ccc(OC)cc2)sc2cc(OC)ccc12 [3-069] | 0 (Herbicidal rate of 5% or less (almost no effect)) | 2 (Herbicidal rate of 20% or more and less than 40%) | 3 (Herbicidal rate of 40% or more and less than 70%) | 0 (Herbicidal rate of 5% or less (almost no effect)) | 2 (Herbicidal rate of 20% or more and less than 40%) | 0 (Herbicidal rate of 5% or less (almost no effect)) | 5 (Herbicidal rate of 90% or more (almost completely withered)) | 4 (Herbicidal rate of 70% or more and less than 90%) | 0 (Herbicidal rate of 5% or less (almost no effect)) | 0 (Herbicidal rate of 5% or less (almost no effect)) | 3 (Herbicidal rate of 40% or more and less than 70%) | 0 (Herbicidal rate of 5% or less (almost no effect)) | 0 (Herbicidal rate of 5% or less (almost no effect)) | 0 (Herbicidal rate of 5% or less (almost no effect)) | 3 (Herbicidal rate of 40% or more and less than 70%) | 0 (Herbicidal rate of 5% or less (almost no effect)) | 4 (Herbicidal rate of 70% or more and less than 90%)
5 | CCOc1ccc(-c2sc3cc(OC)ccc3c2-c2c(O)c(C)nn(C)c2=O)cc1 [3-072] | 3 (Herbicidal rate of 40% or more and less than 70%) | 3 (Herbicidal rate of 40% or more and less than 70%) | 4 (Herbicidal rate of 70% or more and less than 90%) | 0 (Herbicidal rate of 5% or less (almost no effect)) | 4 (Herbicidal rate of 70% or more and less than 90%) | 0 (Herbicidal rate of 5% or less (almost no effect)) | 5 (Herbicidal rate of 90% or more (almost completely withered)) | 3 (Herbicidal rate of 40% or more and less than 70%) | 1 (Herbicidal rate of 5% or more and less than 20%) | 4 (Herbicidal rate of 70% or more and less than 90%) | 4 (Herbicidal rate of 70% or more and less than 90%) | 2 (Herbicidal rate of 20% or more and less than 40%) | 0 (Herbicidal rate of 5% or less (almost no effect)) | 0 (Herbicidal rate of 5% or less (almost no effect)) | 5 (Herbicidal rate of 90% or more (almost completely withered)) | 0 (Herbicidal rate of 5% or less (almost no effect)) | 5 (Herbicidal rate of 90% or more (almost completely withered))
